Test results from ChEMBL document CHEMBL5344429, “1,3-Substituted β-Carboline Derivatives as Potent Chemotherapy for the Treatment of Cystic Echinococcosis” (J Med Chem, 2023).
Calls of active or inactive are those of the source. The rule behind the calls is not given here.

Tests used:
Echinococcus granulosus [1] = assay: Parasiticidal activity against Echinococcus granulosus protoscolices assessed as death rate at 1 uM incubated for 48 hrs by eosin exclusion test; assay type: functional
Echinococcus granulosus [2] = assay: Parasiticidal activity against Echinococcus granulosus protoscolices […] by eosin exclusion test; assay type: functional; conditions: 1152 h, time 48 day
[3] = Neurotoxicity in Kunming mouse assessed as nuclei damage at 50 mg/kg, ip administered for 28 days by TEM analysis; assay type: toxicity, organism-based; conditions: in vivo, 672 h, time 28 day
[4] = Neurotoxicity in Kunming mouse assessed as deformed pyramidal cells in brain at 50 mg/kg, ip administered for 28 days by H and E staining based assay; assay type: toxicity, organism-based; conditions: in vivo, 672 h, time 28 day
[5] = Neurotoxicity in Kunming mouse assessed as swollen pyramidal cells in brain at 50 mg/kg, ip administered for 28 days by H and E staining based assay; assay type: toxicity, organism-based; conditions: in vivo, 672 h, time 28 day
[6] = Neurotoxicity in Kunming mouse assessed as effect on hippocampal arrangement at 50 mg/kg, ip administered for 28 days by TEM analysis; assay type: toxicity, organism-based; conditions: in vivo, 672 h, time 28 day
[7] = Neurotoxicity in Kunming mouse assessed as effect on hippocampal structure at 50 mg/kg, ip administered for 28 days by TEM analysis; assay type: toxicity, organism-based; conditions: in vivo, 672 h, time 28 day
[8] = Neurotoxicity in Kunming mouse assessed as organelles damage at 50 mg/kg, ip administered for 28 days by TEM analysis; assay type: toxicity, organism-based; conditions: in vivo, 672 h, time 28 day
[9] = Neurotoxicity in Kunming mouse assessed as effect on heterochromatin at 50 mg/kg, ip administered for 28 days by TEM analysis; assay type: toxicity, organism-based; conditions: in vivo, 672 h, time 28 day
[10] = Neurotoxicity in Kunming mouse assessed as loosely arranged pyramidal cells in brain at 50 mg/kg, ip administered for 28 days by H and E staining based assay; assay type: toxicity, organism-based; conditions: in vivo, 672 h, time 28 day
Echinococcus granulosus [11] = assay: Parasiticidal activity against Echinococcus granulosus assessed as cyst destruction at 100 uM incubated for 4 days by scanning electron microscopy; assay type: functional, organism-based; conditions: time 4.0 day
Echinococcus granulosus [12] = assay: Parasiticidal activity against Echinococcus granulosus microcyst infected in kunming mouse assessed as mean cyst weight at 25 mg/kg, ip administered for 14 days; assay type: functional; conditions: time 14 day
Echinococcus granulosus [13] = assay: Parasiticidal activity against intraperitoneal cystic Echinococcus granulosus infected in Kunming mouse assessed as decrease number of microvilli at 50 mg/kg, ip administered for 28 days by TEM analysis; assay type: functional, organism-based; conditions: time 28.0 day
Echinococcus granulosus [14] = assay: Parasiticidal activity against intraperitoneal cystic Echinococcus granulosus infected in Kunming mouse assessed as reduction in cell count with clear nucleolus at 50 mg/kg, ip administered for 28 days by TEM analysis; assay type: functional, organism-based; conditions: time 28.0 day
Echinococcus granulosus [15] = assay: Parasiticidal activity against Echinococcus granulosus microcyst infected in kunming mouse assessed as reduction in cyst weight at 25 mg/kg, ip administered for 14 days relative to control; assay type: functional; parameters: scale not given: the % may be the effect or the level left; conditions: time 14 day
Echinococcus granulosus [16] = assay: Parasiticidal activity against Echinococcus granulosus microcyst infected in kunming mouse assessed as reduction in cyst weight at 50 mg/kg, ip administered for 14 days relative to control; assay type: functional; parameters: scale not given: the % may be the effect or the level left; conditions: time 14 day
Echinococcus granulosus [17] = assay: Parasiticidal activity against Echinococcus granulosus protoscolices assessed as appearance of partial shedding at 5 uM incubated for 4 days by H and E staining based assay; assay type: functional, organism-based; conditions: time 4.0 day
Echinococcus granulosus [18] = assay: Parasiticidal activity against Echinococcus granulosus microcyst infected in kunming mouse assessed as mean cyst weight at 12.5 mg/kg, ip administered for 14 days; assay type: functional; conditions: time 14 day
Echinococcus granulosus [19] = assay: Parasiticidal activity against intraperitoneal cystic Echinococcus granulosus infected in Kunming mouse assessed as appearance of unclear cortex at 50 mg/kg, ip administered for 28 days by TEM analysis; assay type: functional, organism-based; conditions: time 28.0 day
Echinococcus granulosus [20] = assay: Parasiticidal activity against Echinococcus granulosus microcyst infected in kunming mouse assessed as mean cyst weight at 50 mg/kg, ip administered for 28 days; assay type: functional; conditions: time 28 day
Echinococcus granulosus [21] = assay: Parasiticidal activity against Echinococcus granulosus protoscolices assessed as survival rate at 1 uM incubated for 48 hrs by eosin exclusion test; assay type: functional
Echinococcus granulosus [22] = assay: Parasiticidal activity against Echinococcus granulosus protoscolices assessed as body shrank with irregular edge at 5 uM incubated for 4 days by H and E staining based assay; assay type: functional, organism-based; conditions: time 4.0 day
Echinococcus granulosus [23] = assay: Parasiticidal activity against Echinococcus granulosus microcyst infected in kunming mouse assessed as reduction in cyst weight at 12.5 mg/kg, ip administered for 14 days relative to control; assay type: functional; parameters: scale not given: the % may be the effect or the level left; conditions: time 14 day
Echinococcus granulosus [24] = assay: Parasiticidal activity against Echinococcus granulosus microcyst infected in kunming mouse assessed as reduction in cyst weight at 50 mg/kg, ip administered for 28 days relative to control; assay type: functional; parameters: scale not given: the % may be the effect or the level left; conditions: time 28 day
Echinococcus granulosus [25] = assay: Parasiticidal activity against Echinococcus granulosus microcyst infected in kunming mouse assessed as mean cyst weight at 25 mg/kg, ip administered for 28 days; assay type: functional; conditions: time 28 day
Echinococcus granulosus [26] = assay: Parasiticidal activity against Echinococcus granulosus microcyst infected in kunming mouse assessed as reduction in cyst weight at 25 mg/kg, ip administered for 28 days relative to control; assay type: functional; parameters: scale not given: the % may be the effect or the level left; conditions: time 28 day
Echinococcus granulosus [27] = assay: Parasiticidal activity against Echinococcus granulosus microcyst infected in kunming mouse assessed as mean cyst weight at 50 mg/kg, ip administered for 14 days; assay type: functional; conditions: time 14 day
Echinococcus granulosus [28] = assay: Parasiticidal activity against Echinococcus granulosus microcyst infected in kunming mouse assessed as mean cyst weight at 12.5 mg/kg, ip administered for 28 days; assay type: functional; conditions: time 28 day
Echinococcus granulosus [29] = assay: Parasiticidal activity against Echinococcus granulosus protoscolices assessed as appearance of relative completion of sucker at 5 uM incubated for 2 days by scanning electron microscopy; assay type: functional, organism-based; conditions: time 2.0 day
Echinococcus granulosus [30] = assay: Parasiticidal activity against Echinococcus granulosus protoscolices assessed as outer skin and hooks fall off at 5 uM incubated for 2 days by scanning electron microscopy; assay type: functional, organism-based; conditions: time 2.0 day
Echinococcus granulosus [31] = assay: Parasiticidal activity against Echinococcus granulosus microcyst infected in kunming mouse assessed as reduction in cyst weight at 12.5 mg/kg, ip administered for 28 days relative to control; assay type: functional; parameters: scale not given: the % may be the effect or the level left; conditions: time 28 day

## COc1ccc(-c2nc(C(=O)Nc3ccc(CN4CCC(N5CCCCC5)CC4)cc3)cc3c2[nH]c2ccccc23)c(OC)c1
Echinococcus granulosus [1]
  Activity: Active
Echinococcus granulosus [2]
  LC50: 13 µM

## CCCSc1ccc2nc(NC(=O)OC)[nH]c2c1 [ALBENDAZOLE]
[3]
  Activity: Non-Toxic
[4]
  Activity: Non-Toxic
[5]
  Activity: Non-Toxic
[6]
  Activity: Non-Toxic
[7]
  Activity: Non-Toxic
[8]
  Activity: Non-Toxic
[9]
  Activity: Non-Toxic
[10]
  Activity: Non-Toxic

## COc1cc(OC)cc(-c2nc(C(=O)Nc3ccc(CN4CCC(N5CCCCC5)CC4)cc3)cc3c2[nH]c2ccccc23)c1
Echinococcus granulosus [1]
  Activity: Active
Echinococcus granulosus [2]
  LC50: 7.16 µM

## CCCSc1ccc2[nH]c(NC(=O)OC)nc2c1 [ALBENDAZOLE]
Echinococcus granulosus [11]
  Activity: inactive
Echinococcus granulosus [12]
  Activity: 26.2 mg
Echinococcus granulosus [13]
  Activity: Active
Echinococcus granulosus [14]
  Activity: Active
Echinococcus granulosus [15]
  Activity: 49.16%
Echinococcus granulosus [16]
  Activity: 54.7%
Echinococcus granulosus [17]
  Activity: Active
Echinococcus granulosus [18]
  Activity: 29.5 mg
Echinococcus granulosus [19]
  Activity: Active
Echinococcus granulosus [20]
  Activity: 24.2 mg
Echinococcus granulosus [21]
  Activity: 100%
Echinococcus granulosus [22]
  Activity: Active
Echinococcus granulosus [23]
  Activity: 42.77%
Echinococcus granulosus [2]
  LC50: 154 µM
Echinococcus granulosus [24]
  Activity: 55.4%
Echinococcus granulosus [25]
  Activity: 25.3 mg
Echinococcus granulosus [26]
  Activity: 53.45%
Echinococcus granulosus [27]
  Activity: 23.3 mg
Echinococcus granulosus [28]
  Activity: 26.7 mg
Echinococcus granulosus [29]
  Activity: Active
Echinococcus granulosus [30]
  Activity: Active
Echinococcus granulosus [31]
  Activity: 50.9%
